We go through two molecules from patent publication US12370183B2, “Compositions and methods for treating malaria” (Rutgers, The State University of New Jersey, priority 2020, dated 2025).

In experiment [1] the test system is DHODH deficient Pf Dd2 mutant. Put plainly: P. falciparum (Dd2 strain) asexual blood stage assay, DHODH deficient mutant. It is filed as cell-based, Plasmodium falciparum. The note with it: for IC50: Plasmodium falciparum, DD2, 72 h, read-out: DHODH deficient Pf Dd2 mutant IC50 (uM). As to the method:
(§1) Assays using human blood cells infected with Plasmodium falciparum: (Pf) parasites, both wild-type strains as well as mutant drug-resistant strains, were performed as described below. Wild-type strains used were aatB Pf (Dd2 strain) and Pf (Dd2 strain). Mutant strains used were proguanil resistant attb Pf (Dd2 strain), dihydroorotate dehydrogenase (DHODH) deficient aatB Pf (Dd2 strain), and DHODH deficient and proguanil resistant Pf (Dd2 strain).
(§2) 2008 Jul. 1; 105(26):9059-64.
(§3) Parasitemia was estimated by blood smear Giemsa stain and visual inspection under the microscopic.
The screening plate was prepared by centrifuging for parasite culture for 5 min at 800×g at RT (low brake) and removing supernatant. A parasite suspension was prepared with 0.3% parasitemia and 4% hematocrit in screening medium (SM). The suspension was gassed with a gas mixture of 1% oxygen, 3% carbon dioxide, 96% nitrogen and stored at 37° C. for until ready to use. 50 nl of 1 mM compound in DMSO was prespotted into 1536 well plates (final drug conc. of 12.5 μM, final DMSO conc. of 0.625%) with the acoustic dispenser ATS. Controls were Artemisinin, Chloroquine, and DMSO. 8 μl of SM was dispensed into 1,536-well, black, clear-bottom plates (Greiner) using the MultiFlo™ Microplate dispenser (BioTek) (final parasitemia of 0.3% and 2.5% hematocrit in SM). The plates were incubated at 37° C. for 72 h with water-soaked tissue in a closed ziploc bag gassed with 1% oxygen, 3% carbon dioxide, 96% nitrogen.
(§4) 2 μl of detection reagent mixture (10×SYBR Green I (Invitrogen) in Lysis buffer (20 mM Tris/HCl, 5 mM EDTA, 0.16% Saponin wt/vol, 1.6% Triton X vol/vol) was added. Assay plates were read from the bottom by using the 2104 EnVision® Multilabel Reader (PerkinElmer) (485 nm excitation, 530 nm emission). The results are presented in Table 5 below.

Experiment [2] relates to DHODH deficient + Proguanil resistant Pf Dd2. Put plainly: P. falciparum (Dd2 strain) asexual blood stage assay, DHODH deficient + proguanil resistant. It counts as cell-based. The note with it: Plasmodium falciparum, DD2, 72 h, read-out: DHODH deficient + Proguanil resistant Pf Dd2 IC50 (uM). As to the method:
as §1, §2, §3
The screening plate was prepared by centrifuging for parasite culture for 5 min at 800×g at RT (low brake) and removing supernatant. A parasite suspension was prepared with 0.3% parasitemia and 4% hematocrit in screening medium (SM). The suspension was gassed with a gas mixture of 1% oxygen, 3% carbon dioxide, 96% nitrogen and stored at 37° C. for until ready to use. […]
as §4

For experiment [3], the system named is P. berghei Luciferase sporozoites in HepG2-A16-CD81EGFP cells. Put plainly: P. berghei Luciferase liver stage assay. It is filed as cell-based. Particulars: Plasmodium berghei, 48 h after infection, bioluminescence, read-out: IC50 against sporozoite infection of liver cells (P. berghei Luciferase). The procedure:
Compounds 66 and 177 were tested for activity against sporozoite infection of liver cells as well the viability of liver schizonts of the murine Plasmodium berghei species transformed with Luciferase by using an assay adapted from S. Swann et al. (2016) High-Throughput Luciferase-Based Assay for the Discovery of Therapeutics That Prevent Malaria. ACS Infectious Diseases 2: 4. 281-293 (2016).
Compounds 66 and 177 were tested for activity against sporozoite infection of liver cells of the murine Plasmodium berghei species transformed with Luciferase by using the following P. berghei Luciferase liver stage assay.
Hepatic human transformed cells (HepG2) pre-treated for 18 hours with either compound 66 or 177 were infected with freshly dissected P. berghei Luciferase sporozoites. After another 48 hours of incubation with the compound, the viability of P. berghei exoerythrocytic forms (EEF) was measured by bioluminescence.
Plasmodium berghei Luciferase sporozoites were obtained by dissection of infected A. stephensi mosquito salivary glands supplied by the New York University Insectary. Dissected salivary glands were homogenized in a glass tissue grinder and filtered twice using Steriflip Vacuum-Driven Filtration System (20 μm pore size, Millipore) and counted using a hemocytometer. The sporozoites were kept on ice until needed. […]

The IC50 is the point on the concentration scale where inhibition reaches its midpoint.

As to `O=C(Nc1ccc(F)c(F)c1)c1c2c(nc3ccccc13)CCN(Cc1ccccc1)C2` [Compound 66, 2-Benzyl-N-(3,4-difluorophenyl)-1,2,3,4-tetrahydrobenzo[b][1,6]naphthyridine-10-carboxamide], the IC50 in experiment [1] was 0.0301 µM; in experiment [2] it was 0.028 µM; in experiment [3], > 50000 nM.

On to `O=C1c2c3c(nc4ccccc24)CCN(Cc2ccccc2)C3N1c1ccc(F)c(F)c1` (stereo not shown) [Compound 177, 3-Benzyl-2-(3,4-difluorophenyl)-2a,3,4,5-tetrahydrobenzo[b]pyrrolo[4,3,2-de][1,6]naphthyridin-1(2H)-one], for which the IC50 was 0.006 µM in experiment [1], 0.0103 µM in experiment [2] and > 12500 nM in experiment [3]. The “potency against a dihydroorotate dehydrogenase (DHODH) deficient mutant” value in experiment [1] (in words) is “undiminished potency”.
